Data from patent US12691103B2 (Jinan University, priority 2022, dated 2026).
Where a name gives a salt, the structure may show the parent alone. Ends that are not written are not given here.

Key:
[1] = test system: patients with oligospermia; conditions: GnRH supplementation; cited from earlier work
[2] = after administration (oral); cited from earlier work
[3] = test system: men with oligospermia with hypogonadism; conditions: cited from earlier work
busulfan-modeled mice = conditions: model group, busulfan 30 mg/kg single intraperitoneal injection; compared with the control group
Description: The Kunming mice are injected intraperitoneally with busulfan (30 mg/kg). An average weight of the mice is 27 grams (g). Each mouse is injected with 0.8 mg busulfan. A total of 40 mice are modeled.
After one week of modeling the mice, the average weight of the experimental mice is grams (g). […] The control group and the model group are injected with the equivalent amount of physiological saline.
After the mice are anesthetized and sacrificed, the left epididymal tail is immediately removed for semen analysis. The left testis is stored at −80° C., and the parameters such as protein and messenger ribonucleic acid (mRNA) expression are detected. The right testis and right epididymis are fixed with 4% paraformaldehyde for further histological analysis.
(2) Staining with hematoxylin: the soaked sections are taken out and dried, a hematoxylin staining solution is added to cover the tissue and stained for 3 minutes.
(3) Differentiation: a differentiation solution is dropped at the sections, after 5-6 seconds (s), when observing that the color has faded, the section can be rinsed with the ultrapure water.
(4) Bluing: hematoxylin bluing solution is dropped at the section, after 5-6 seconds, when observing the color blue, the sections can be rinsed with the ultrapure water. […]

GnRH: gonadotropin-releasing hormone supplementation (QHWSYGLRPG; ends and bridges not checked; UniProt P01148 24-33, looked up)
patients who succeed in spermatogenesis [1]: 77%

Nc1nc2ccc(OC(F)(F)F)cc2s1 [riluzole, 2-amino-6-trifluomethoxy-benzothiazole]
time to peak of blood concentration [2]: 60 to 90 min

CCN(CC)CCOc1ccc(C(=C(Cl)c2ccccc2)c2ccccc2)cc1 [clomiphene citrate]
bone mineral density of patients ([3]; 12-month treatment): significantly reduce
usefulness in men with oligospermia with hypogonadism ([3]; in vivo): proven to be useful

CS(=O)(=O)OCCCCOS(C)(=O)=O [busulfan]
structure of seminiferous tubules (HE staining of testes) (busulfan-modeled mice): severely damages
